Results from paper PMC6804080, “Benzoxaboroles—Novel Autotaxin Inhibitors” (Molecules, 2019).
Values after ≈ are worked out from the molar mass of the structure shown. Values joined by “and” are separate entries in the source; they are usually repeats but may differ in a detail not shown here. Equal entries are not always repeated.

Key:
[1] = plasma protein binding, equilibrium dialysis, rat plasma; format: in vitro ADME; settings: pH 7.4, rat plasma, read-out: PPB: fraction bound, rat (converted)
Procedure: (§1) Plasma protein binding was measured using the equilibrium dialysis technique. Positive controls included in this assay were: Acebutolol (low binding) and nicardipine (very high binding). The assay was performed in a 96-well Teflon dialysis unit, where each well consisted of two chambers separated by a dialysis membrane. Plasma (human and rat, commercially obtained from Seralab) spiked with each compound (final concentration: 5 µM, 0.5% DMSO) were added to one chamber, and a blank buffer solution (60 mM Na2HPO4/14 mM KH2PO4/70 mM NaCl; pH 7.4) was added to the other side of the well. Each compound was analyzed in duplicate, for 4 h at 37 °C. After 4 h, both the plasma (free and bound fraction) and buffer (only free fraction) side of the well were sampled, matrix matched, then precipitated with a STOP solution (CH3CN:CH3OH 2:1 v/v, containing diclofenac as internal standard), and centrifuged at 2000 rpm for 30 min (+4 °C). The resulting supernatants were analyzed by LC-MS/MS. The fraction bound was calculated as the concentration difference (analyte vs. internal standard peak area ratio) in the plasma and buffer sides divided by the total concentration in the plasma side. Sampling was also performed from spiked plasma at t = 0 min in order to determine recovery, i.e., % of compound detected at t = 4 h in both the plasma and buffer chambers divided by the compound detected at t = 0 min.

Autotaxin (ATX) = molecular target: T1, Autotaxin (ATX) (Homo sapiens, UniProt Q13822); assay: biochemical choline detection assay for ATX inhibition, LysoPC substrate; settings: for IC50: mean standard deviation from duplicate experiments; for ATX inhibition, range of activity: in words
T1 construct: we added 10 μL of recombinant ATX (2 ng/mL) in a Tris–HCl buffer
Procedure: All 21 new benzoxaboroles derivatives prepared herein were evaluated for ATX inhibition in vitro using a biochemical choline detection assay, combining elements of assays already described in the literature.
[…] Mother plates with serial dilutions of compounds in pure DMSO were prepared from 10 mM DMSO stock solutions. Storplate-384-deep-well-V plates (Perkin Elmer) were also used for mother plate preparation. Compounds were diluted in a DMSO in a ratio of 1:3. An aliquot of 200 nL of compound solution was transferred from the mother plate to the test plate with a Mosquito nanoliter liquid handling system (TTP labtech). The assay was performed in Spectra-Plate-384 TC, transparent, (Perkin Elmer, Cat#6007658) using a 20 µL assay volume. The total final percentage of DMSO in the test media was 1%. Compounds were tested at 11 consecutive three-fold dilutions starting from 50 µM (final concentrations) in duplicate, covering range of 0.0008–50 μM to determine IC50 values. […] After dispensing of compounds directly to the dry plate, we added 10 μL of recombinant ATX (2 ng/mL) in a Tris–HCl buffer (140 mM NaCl, 1mM MgCl2, 5 mM KCl, 3 mM CaCl2, 1 mg/ml bovin serum albumin (BSA, fatty acid free) and 100 mM Tris–HCl, pH 9). […] The above-described solution with dimethyl sulfoxide but without the test compound was used as a control. LysoPC without ATX was used as a control for the autohydrolysis of LysoPC. After 1.5 h of incubation, 20 μL of stop solution and developer was added {Choline oxidase (1.2 U/mL), Peroxidase (1.2 U/mL), TOOS (2.7 mM), 4-Aminoantipyrine (2.7 mM), and EDTA (50 mM)} to the reaction mixture, and absorbance was measured after 30 min of incubation. The absorbance was measured by using Perkin-Elmer EnVision plate reader (λ = 555 nm). Data were analyzed using GraphPad Prism software. The calculation of IC50 data, curves and quality control (QC) analysis was made by using Excel tools and GraphPadPrism software. Briefly, individual concentration–effect curves were generated by plotting the logarithm of the tested concentration of tested compounds (X) vs. corresponding percentage inhibition values (Y) using a least squares (ordinary) fit. […] QC criteria parameters (Z,’ S:B, ΔmP) were checked for every plate.

[2] = Chrom logD determination by gradient HPLC (CHI); format: physicochemical; settings: pH 7.4, Luna C18 column; for chromatographic logD: reversed-phase HPLC, Phenomenex Luna C18 column
Procedure: clogP values were calculated for all compounds using the Percepta software. Chrom logD was determined experimentally using a procedure described in the supplementary data. Furthermore, the correlation between calculated clogP values and experimentally determined Chrom log D values were explored for molecules containing boron functional groups such as boronic acids and benzoxaboroles.
Chrom logD values were determined from the following equation: Chrom logD = 0.0857 × CHI − 2 [39]. Chromatographic hydrophobic index (CHI) values were determined from the gradient retention times (RT). These values approximately corresponded to the volume percentage of organic component in the mobile phase when the compound elutes. CHI values were determined at pH 7.4. Chromatograms were obtained using on Agilent 1100 Series liquid chromatography system with an HPLC diode-array detector (DAD) coupled with a Micromass Quattro micro atmosphere pressure ionization (API) mass spectrometer. The column used for analyses was Phenomenex Luna C18 (50 × 3 mm, 5 µm, 100 Å). The column was maintained at 25 °C. The flow rate was 1.0 mL/min. The mobile phase was composed of 50 mM ammonium acetate in water at pH 7.4 (solvent A) and acetonitrile (solvent B). The solvent gradient condition was initially 0.5% B, and then it increased linearly to 100% B over 3.0 min, remaining at 100% B for 0.5 min, then decreasing linearly to 0% B over 0.2 min followed by an equilibration period of 1.3 min prior to the next injection. The total experimental duration was 5 min. Injection volume was 2.0 µl. Samples temperature was maintained at 15 °C in the autosampler chamber. A group of ten standard compounds having different CHI values was used for calibration of RP-HPLC [40].

[3] = plasma protein binding, equilibrium dialysis, human plasma; format: in vitro ADME; settings: for fraction unbound at 4 h, 5 µM: pH 7.4, read-out: PPB: fraction bound, human (converted)
Procedure: as §1

[4] = metabolic stability in human liver microsomes; format: in vitro ADME
Procedure: (§2) Metabolic stability was assessed in rat and human liver microsomes, with testosterone and propranolol as positive controls. All compounds, at a final concentration of 1 μM (0.03% DMSO), were incubated in a phosphate buffer (50 mM, pH 7.4) for 60 min at 37 °C, together with liver microsomes in the absence and presence of NADPH generating system (nicotinamide adenine dinucleotide phosphate (NADP, 2 mM), glucose-6-phosphate (20 mM), glucose-6-phosphate dehydrogenase (6U) and magnesium chloride (2 mM)). Aliquots were taken at different time points (0, 10, 20, 30, 45 and 60 min), followed by reaction termination by addition of CH3CN:CH3OH 2:1 v/v, containing diclofenac as internal standard (IS). Samples were then centrifuged (at 2000 rpm at 4 °C for 30 min), and resulting supernatants were subjected to LC/MS/MS analysis. The in vitro half-life was calculated in GraphPadPrism software from % remaining vs. time regression using non-linear regression fit. In vitro intrinsic clearance, expressed as mL/min/g liver, was determined from in vitro half-life and normalized for the protein concentration in the incubation mixture, assuming a 52.5 mg/g liver.

[5] = in vitro plasma stability, human plasma; format: in vitro ADME; settings: after 4 h
Procedure: (§3) The in vitro plasma stability of the test compounds was studied in human and rat plasma with propranolol, benflorex, and eucatropine as control substances. All compounds at final concentrations of 5 μM (0.5% DMSO) were incubated in a phosphate buffer (50 mM, pH 7.4) for 4 h at 37 °C together with plasma. Aliquots were taken at different time points (0, 30, 120 min and 4 h), followed by reaction termination by the addition of CH3CN:CH3OH 2:1 v/v., which contained diclofenac and warfarin as internal standards (IS). Samples were then centrifuged (at 1600 rpm at 4 °C for 30 min), and the resulting supernatants were subjected to LC/MS/MS analysis. Results are expressed as % remaining.

[6] = kinetic solubility, turbidimetric method; format: physicochemical; settings: for solubility kinetic at 1 h: 37 °C, pH 7.4, aqueous buffer, kinetic from dmso stock, Solubility (kinetic solubility range)
Procedure: Turbidimetric solubility allows for a rapid determination of kinetic solubility by using small amounts of the test compound. Assay controls were α-naphtoflavone (low solubility) and sulfaphenazole (expected solubility >100µM). DMSO stock solutions (10 mM) of each compound were first serially diluted 1 in 3 in DMSO and then spiked into an aqueous buffer (100 mM PBS), resulting in 5 following final concentration: 100, 30, 10, 3 and 1 µM (each concentration was tested in duplicate). […] Compound samples were compared to a solvent control in an aqueous buffer (DMSO 1% final concentration), and a significant increase of sample absorbance was considered to have occurred when the absorbance reached a 3-fold standard deviation of the average DMSO absorbance. The calculation of solubility range data was made by Excel tool software. Results are expressed as an estimated solubility range.

[7] = metabolic stability in rat liver microsomes; format: in vitro ADME
Procedure: as §2

[8] = in vitro plasma stability, rat plasma; format: in vitro ADME; settings: after 4 h
Procedure: as §3

[9] = choline release assay using as a substrate

| fraction unbound at 4 h, 5 µM [1] | IC50 (Autotaxin (ATX); [9]) | ATX inhibition, range of activity (Autotaxin (ATX)) | chromatographic logD [2] | fraction unbound at 4 h, 5 µM [3] | LMS: predicted in vivo hepatic clearance, human [4] | PS (plasma stability), human [5] | solubility kinetic at 1 h [6] | LMS: predicted in vivo hepatic clearance, rat [7] | PS (plasma stability), rat [8] | IC50 (Autotaxin (ATX); choline release assay using LPC C16:0 as a substrate) | Chrom logD [2] | PPB: fraction bound, human [3] | Solubility (kinetic solubility range) ([6]; turbidimetric, PBS pH 7.4, after 1h) | Structure (SMILES) |
| --- | --- | --- | --- | --- | --- | --- | --- | --- | --- | --- | --- | --- | --- | --- |
| 0.016 | 130 ± 120 nM | nanomolar range | 4.58 | 0.021 | 85 %LBF | 79.1 %remaining | 30 to 100 µM (≈ 15.1 to 50.4 µg/mL) | 62 %LBF | 71.2 %remaining and 72.2 %remaining |  |  |  |  | O=C(OCc1cc(Cl)cc(Cl)c1)N1CCN(C2CN(C(=O)c3ccc4c(c3)B(O)OC4)C2)CC1 [Compound 37, (3,5-dichlorophenyl)methyl 4-[1-(1-hydroxy-3H-2,1-benzoxaborole-6-carbonyl)azetidin-3-yl]piperazine-1-carboxylate] |
|  | 1800 ± 1750 nM |  | 4.58 | 0.017 | 89 %LBF | 59.2 %remaining | > 100 µM | 86 %LBF | 63.0 %remaining |  |  |  |  | O=C(OCc1cc(Cl)cc(Cl)c1)N1CCN(C2CCN(C(=O)c3ccc4c(c3)COB4O)CC2)CC1 [Compound 35, (3,5-dichlorophenyl)methyl 4-[1-(1-hydroxy-3H-2,1-benzoxaborole-5-carbonyl)-4-piperidyl]piperazine-1-carboxylate] |
|  | 7500 ± 5600 nM |  | 4.63 | 0.022 | 85 %LBF | 71.6 %remaining | > 100 µM | 86 %LBF | 67.9 %remaining |  |  |  |  | O=C(OCc1cc(Cl)cc(Cl)c1)N1CCN(C2CCN(C(=O)c3cccc4c3B(O)OC4)C2)CC1 (stereo not drawn) [Compound 31, (3,5-dichlorophenyl)methyl 4-[1-(1-hydroxy-3H-2,1-benzoxaborole-7-carbonyl)pyrrolidin-3-yl]piperazine-1-carboxylate] |
| 0.039 | 2700 ± 2110 nM |  | 4.13 | 0.022 | 85 %LBF | 79.2 %remaining | > 100 µM | 80 %LBF | 59.5 %remaining |  |  |  |  | Cc1cc(C)cc(COC(=O)N2CCN(C3CCN(C(=O)c4ccc5c(c4)B(O)OC5)C3)CC2)c1 (stereo not drawn) [Compound 43, (3,5-dimethylphenyl)methyl 4-[1-(1-hydroxy-3H-2,1-benzoxaborole-6-carbonyl)pyrrolidin-3-yl]piperazine-1-carboxylate] |
| 0.012 | 180 ± 40 nM | nanomolar range | 4.52 | 0.016 | 82 %LBF | 66.5 %remaining | > 100 µM | 86 %LBF | 64.5 %remaining |  |  |  |  | O=C(OCc1cc(Cl)cc(Cl)c1)N1CCN(C2CCN(C(=O)c3ccc4c(c3)B(O)OC4)C2)CC1 (stereo not drawn) [Compound 30, (3,5-dichlorophenyl)methyl 4-[1-(1-hydroxy-3H-2,1-benzoxaborole-6-carbonyl)pyrrolidin-3-yl]piperazine-1-carboxylate] |
|  |  | nanomolar range |  |  | 89 %LBF | 70.6 %remaining |  | 77 %LBF | 61.6 %remaining | 920 ± 820 nM | 5.49 | NA ^e/99.2% | >100 µM | O=C(OCc1cc(Cl)cc(Cl)c1)N1CCN(C2CCN(C(=O)c3ccc4c(c3)B(O)OC4)CC2)CC1 [Compound 34] |
